Source: patent US11498899B2, “Nitrone herbicides” (FMC Corporation, priority 2016, dated 2022)

Key:
[1] = test system: barnyardgrass (Echinochloa crus-galli); test: Test A preemergence, visual injury rating 0-100 (0 no effect, 100 complete control); format: in vivo; conditions: for Barnyardgrass plant response rating (0 to 100 scale): 125 g ai/ha; for Barnyardgrass plant response rating: 500 g ai/ha, 0 to 100 scale
Description: (§1) Seeds of plant species selected from barnyardgrass (Echinochloa crus-galli), kochia (Kochia scoparia), ragweed (common ragweed, Ambrosia elatior), ryegrass, Italian (Italian ryegrass, Lolium multiflorum), foxtail, giant (giant foxtail, Setaria faberii), foxtail, green (green foxtail, Setaria viridis), and pigweed (Amaranthus retroflexus) were planted into a blend of loam soil and sand and treated preemergence with a directed soil spray using test chemicals formulated in a non-phytotoxic solvent mixture which included a surfactant.
(§2) At the same time, plants selected from these weed species and also wheat (Triticum aestivum), corn (Zea mays), blackgrass (Alopecurus myosuroides), and galium (catchweed bedstraw, Galium aparine) were planted in pots containing the same blend of loam soil and sand and treated with postemergence applications of test chemicals formulated in the same manner. Plants ranged in height from 2 to 10 cm and were in the one- to two-leaf stage for the postemergence treatment. Treated plants and untreated controls were maintained in a greenhouse for approximately 10 days, after which time all treated plants were compared to untreated controls and visually evaluated for injury. […] A dash (-) response means no test result.

[2] = test system: foxtail, giant (giant foxtail, Setaria faberii); test: Test A preemergence, visual injury rating 0-100; format: in vivo; conditions: for Foxtail, Giant plant response rating (0 to 100 scale): 125 g ai/ha; for Foxtail, Giant plant response rating: 500 g ai/ha, 0 to 100 scale
Description: as §1, §2

[3] = test system: kochia (Kochia scoparia); test: Test A preemergence, visual injury rating 0-100; format: in vivo; conditions: for Kochia plant response rating (0 to 100 scale): 125 g ai/ha; for Kochia plant response rating: 500 g ai/ha, 0 to 100 scale
Description: as §1, §2

[4] = test system: pigweed (Amaranthus retroflexus); test: Test A preemergence, visual injury rating 0-100; format: in vivo; conditions: for Pigweed plant response rating (0 to 100 scale): 125 g ai/ha; for Pigweed plant response rating: 500 g ai/ha, 0 to 100 scale
Description: as §1, §2

[5] = test system: ragweed (common ragweed, Ambrosia elatior); test: Test A preemergence, visual injury rating 0-100; format: in vivo; conditions: for Ragweed plant response rating (0 to 100 scale): 125 g ai/ha; for Ragweed plant response rating: 500 g ai/ha, 0 to 100 scale
Description: as §1, §2

[6] = test system: ryegrass, Italian (Italian ryegrass, Lolium multiflorum); test: Test A preemergence, visual injury rating 0-100; format: in vivo; conditions: for Ryegrass, Italian plant response rating (0 to 100 scale): 125 g ai/ha; for Ryegrass, Italian plant response rating: 500 g ai/ha, 0 to 100 scale
Description: as §1, §2

[7] = test system: barnyardgrass (Echinochloa crus-galli); test: Test A postemergence, visual injury rating 0-100; format: in vivo; conditions: 0 to 100 scale
Description: as §1, §2

[8] = test system: blackgrass (Alopecurus myosuroides); test: Test A postemergence, visual injury rating 0-100; format: in vivo; conditions: 0 to 100 scale
Description: as §1, §2

[9] = test system: corn (Zea mays); test: Test A postemergence, visual injury rating 0-100; format: in vivo; conditions: 0 to 100 scale
Description: as §1, §2

[10] = test system: foxtail, giant (giant foxtail, Setaria faberii); test: Test A postemergence, visual injury rating 0-100; format: in vivo; conditions: 0 to 100 scale
Description: as §1, §2

[11] = test system: galium (catchweed bedstraw, Galium aparine); test: Test A postemergence, visual injury rating 0-100; format: in vivo; conditions: 0 to 100 scale
Description: as §1, §2

[12] = test system: kochia (Kochia scoparia); test: Test A postemergence, visual injury rating 0-100; format: in vivo; conditions: 0 to 100 scale
Description: as §1, §2

[13] = test system: pigweed (Amaranthus retroflexus); test: Test A postemergence, visual injury rating 0-100; format: in vivo; conditions: 0 to 100 scale
Description: as §1, §2

[14] = test system: ragweed (common ragweed, Ambrosia elatior); test: Test A postemergence, visual injury rating 0-100; format: in vivo; conditions: 0 to 100 scale
Description: as §1, §2

[15] = test system: ryegrass, Italian (Italian ryegrass, Lolium multiflorum); test: Test A postemergence, visual injury rating 0-100; format: in vivo; conditions: 0 to 100 scale
Description: as §1, §2

[16] = test system: wheat (Triticum aestivum); test: Test A postemergence, visual injury rating 0-100; format: in vivo; conditions: 0 to 100 scale
Description: as §1, §2

[17] = test system: ducksalad (Heteranthera limosa); test: Test B flooded paddy test, visual rating 0-100; conditions: Flood, 250 g ai/ha, applied to paddy water, rated after 13 to 15 days
[18] = test system: barnyardgrass (Echinochloa crus-galli); test: Test B flooded paddy test, visual rating 0-100; conditions: Flood, 250 g ai/ha, applied to paddy water, rated after 13 to 15 days
[19] = test system: rice (Oryza sativa); test: Test B flooded paddy test, visual rating 0-100 (0 no effect, 100 complete control); conditions: Flood, 250 g ai/ha, applied to paddy water, rated after 13 to 15 days

Structure (SMILES)	Barnyardgrass plant response rating (0 to 100 scale) [1]	Barnyardgrass plant response rating [1]	Foxtail, Giant plant response rating (0 to 100 scale) [2]	Foxtail, Giant plant response rating [2]	Kochia plant response rating (0 to 100 scale) [3]	Kochia plant response rating [3]	Pigweed plant response rating (0 to 100 scale) [4]	Pigweed plant response rating [4]	Ragweed plant response rating (0 to 100 scale) [5]	Ragweed plant response rating [5]	Ryegrass, Italian plant response rating (0 to 100 scale) [6]	Ryegrass, Italian plant response rating [6]	Barnyardgrass plant response rating ([7]; 125 g ai/ha)	Barnyardgrass plant response rating ([7]; 500 g ai/ha)	Blackgrass plant response rating ([8]; 125 g ai/ha)	Blackgrass plant response rating ([8]; 500 g ai/ha)	Corn plant response rating ([9]; 125 g ai/ha)	Corn plant response rating ([9]; 500 g ai/ha)	Foxtail, Giant plant response rating ([10]; 125 g ai/ha)	Foxtail, Giant plant response rating ([10]; 500 g ai/ha)	other results
CC1=[N+]([O-])C(C(=O)Nc2cccc(F)c2F)C(c2ccccc2C)C1 (racemic) [Compound 11]	80	100	90	100	0	0	0	0	40	30	0	0	40	90	0	0	0	0	30	90	Galium plant response rating ([11]; 125 g ai/ha): 0; Galium plant response rating ([11]; 500 g ai/ha): 20; Kochia plant response rating ([12]; 125 g ai/ha): 0; Kochia plant response rating ([12]; 500 g ai/ha): 0; Pigweed plant response rating ([13]; 125 g ai/ha): 0; Pigweed plant response rating ([13]; 500 g ai/ha): 0; Ragweed plant response rating ([14]; 125 g ai/ha): 0; Ragweed plant response rating ([14]; 500 g ai/ha): 0; Ryegrass, Italian plant response rating ([15]; 125 g ai/ha): 0; Ryegrass, Italian plant response rating ([15]; 500 g ai/ha): 0; Wheat plant response rating ([16]; 125 g ai/ha): 0; Wheat plant response rating ([16]; 500 g ai/ha): 20; Ducksalad plant response rating (0 to 100 scale) [17]: 100; Barnyardgrass plant response rating (0 to 100 scale) [18]: 90; Rice plant response rating (0 to 100 scale) [19]: 15
CC1=[N+]([O-])C(C(=O)Nc2cccc(F)c2F)C(c2cccc(C(C)C)c2)C1 (racemic) [Compound 12]	100	100	100	100	0	50	0	30	0	90	0	90	10	90	0	50	50	90	90	90	Galium plant response rating ([11]; 125 g ai/ha): 50; Galium plant response rating ([11]; 500 g ai/ha): 70; Kochia plant response rating ([12]; 125 g ai/ha): 0; Kochia plant response rating ([12]; 500 g ai/ha): 30; Pigweed plant response rating ([13]; 125 g ai/ha): 0; Pigweed plant response rating ([13]; 500 g ai/ha): 20; Ragweed plant response rating ([14]; 125 g ai/ha): 0; Ragweed plant response rating ([14]; 500 g ai/ha): 40; Ryegrass, Italian plant response rating ([15]; 125 g ai/ha): 0; Ryegrass, Italian plant response rating ([15]; 500 g ai/ha): 50; Wheat plant response rating ([16]; 125 g ai/ha): 20; Wheat plant response rating ([16]; 500 g ai/ha): 70; Ducksalad plant response rating (0 to 100 scale) [17]: 80; Barnyardgrass plant response rating (0 to 100 scale) [18]: 70; Rice plant response rating (0 to 100 scale) [19]: 0
